Measurements reported in patent US20250282711A1, “CRYSTALLINE FORM OF ELACESTRANT AND PREPARATION METHOD AND USE THEREOF” (CRYSTAL PHARMACEUTICAL (SUZHOU) CO., LTD., priority 2022, published 2025).
Converted amounts (≈) assume the structure as drawn.

Columns and labels:
[1] = cited from earlier work; for Humidity stability / form conversion: as disclosed in WO2020010216A1 (FIG. 1, Table 17)
[2] = Kinetic solubility in FeSSIF; assay type: physicochemical; settings: 37° C., 30 min, 10 mg in 1 mL
Method: When solubility test is used to predict the in vivo performance of a drug, it is critical to simulate in vivo conditions as closely as possible. For oral medication, Fed-State Simulated Intestinal Fluid (FeSSIF) can be used to simulate the condition in vivo and predict the effects of feeding, thus solubility in such mediums is closer to that in vivo.
10 mg of Form CSII and 10 mg of prior art Form 1B were suspended into 1 mL of FeSSIF to get suspensions. After equilibrated at 37° C. for 30 min, the suspensions were filtrated to get saturated solutions. The concentrations (mg/mL) of Compound I of the saturated solutions were measured by HPLC.

[3] = Particle size distribution (laser particle size analyzer, wet mode); assay type: physicochemical
Method: The particle size distribution data in the present disclosure were acquired by an Mastersizer 3000 laser particle size analyzer of Malvern. The test was carried out in wet mode, using a Hydro MV dispersion device, and the dispersant was Isopar G. The parameters are as follows:
An appropriate amount of Form CSII of the present disclosure and prior art Form 1B was tested particle size distribution. The average particle diameter calculated by volume, the diameter at which 10% mass is comprised of smaller particles (D10), the diameter at which 50% mass is comprised of smaller particles (D50) and the diameter at which 90% mass is comprised of smaller particles (D90) were obtained in particle size distribution test.

Morphology by microscopy = assay type: physicochemical; settings: magnification of 200 times
Excerpt: An appropriate amount of Form CSII of the present disclosure was placed on a glass slide and dispersed with vacuum pump oil. It was covered with a cover glass slide and shoot at a magnification of 200 times.

[4] = Flowability (compressibility index, USP <1174>); assay type: physicochemical; settings: for Compressibility index: c=(pf−p0)/pf; for Flowability: criteria of USP <1174> Powder Flow
Method: Compressibility index is usually utilized to evaluate the flowability of powder or granules during the drug product process. Compressibility index test method is as follows: a certain amount of powder was added into a measuring cylinder and bulk volume was recorded. Then the powder was tapped to make it in the tightest state and the tapped volume was recorded. The bulk density (p0), tapped density (pf) were calculated and compressibility index was calculated according to c=(pf−p0)/pf. According to the criteria of flowability in USP General Charpters: <1174> Powder Flow, the flowability results are shown in Table 10.

[5] = Compressibility (tablet hardness / tensile strength); assay type: physicochemical; settings: 60 mg, φ6 mm round tooling, 5 KN; for Hardness: 24 h recovery
Method: An ENERPAC manual tablet press was used for compression. 60 mg of Form CSII and prior art Form 1B were weighed and added into the dies of a φ6 mm round tooling, compressed at 5 KN manually, then stored at room temperature for 24 h until elastic recovery is complete, hardness (H) was tested with an intelligent tablet hardness tester. Diameter (D) and thickness (L) were tested with a caliper. Tensile strength of the powder was calculated with the following formula: T=2H/TTDL. Under a certain force, the greater the tensile strength, the better the compressibility.

[6] = Adhesiveness (material sticking to the punch); assay type: physicochemical; settings: 30 mg, Φ8 mm round tooling, 10 KN, held 30 s
Method: 30 mg of Form CSII and 30 mg of prior art Form 1B were weighed and then added into the dies of Φ8 mm round tooling, compressed at 10 KN by ENERPAC manual tablet press and held for 30 s. The punch was weighed and amount of material sticking to the punch was calculated. The compression was repeated twice and the average amount of material sticking to the punch during the compression were calculated.

[7] = Storage stability of Form CSII drug substance (XRPD, HPLC); assay type: physicochemical
Method: An appropriate amount of Form CSII of the present disclosure were stored under different sealed conditions of 25° C./60% RH and 40° C./75% RH with desiccant and antioxidant. Chemical purity and crystalline form were checked by HPLC and XRPD, respectively. […] Form CSII has good stability under both long-term and accelerated conditions.

[8] = Stability upon mechanical force (tableting pressure, grinding); assay type: physicochemical
[9] = Crystal form stability in formulation process; assay type: physicochemical; settings: formulation of Table 15, process of Table 16
Excerpt: Form CSII of the present disclosure was made into capsules using the formulation in Table 15 and the preparation process in Table 16. The XRPD patterns were collected before and after the formulation process.

[10] = low solubility and low permeability; cited from earlier work
[11] = 25° C./60% RH, sealed with desiccant and antioxidant, 6 months
[12] = 40° C./75% RH, sealed with desiccant and antioxidant, 6 months

Solubility [2] [µg/mL]	D10 [3] [μm]	D50 [3] [μm]	D90 [3] [μm]	MV (average particle diameter calculated by volume) [3] [μm]	Bulk density [4] [g/mL]	Tapped density [4] [g/mL]	Compressibility index [4]	Flowability [4]	Tensile strength [5] [MPa]	Hardness [5] [kgf]	Average amount of material sticking to the punch [6] [mg]	SMILES	Humidity stability / form conversion [1]	other results
												CCNCCc1ccc(CN(CC)c2cc(OC)ccc2[C@@H]2CCc3cc(O)ccc3C2)cc1 [Form 1]	transitions to Form 3 under high humidity conditions	
2590 (≈ 5.65 mM)	2.11	14.9	28.3	15.8	0.237	0.266	11	Good	0.97	18.4	0.21	CCNCCc1ccc(CN(CC)c2cc(OC)ccc2[C@@H]2CCc3cc(O)ccc3C2)cc1 [Form CSII, (R)-6-{2-{ethyl [4-(2-ethylaminoethyl)benzyl]amino}-4-methoxyphenyl}-5,6,7,8-tetrahydronaphthalen-2-ol]		Agglomeration (morphology) (Morphology by microscopy): no agglomeration; Maximum particle size (Morphology by microscopy): 30-40 μm; Time kept stable (crystalline state unchanged) ([7]; 25° C./60% RH): at least 6 months; Form (XRPD) [7, 11]: Form CSII; Purity [7, 11]: 99.60%; Time kept stable (crystalline state unchanged) ([7]; 40° C./75% RH): at least 6 months; Form (XRPD) [7, 12]: Form CSII; Purity [7, 12]: 99.58%; Form (XRPD) ([7]; Initial): Form CSII; Purity ([7]; Initial): 99.59%; Solid form after tableting ([8]; Pressure 5 kN): Form CSII; Solid form after tableting ([8]; Pressure 10 kN): Form CSII; Solid form after tableting ([8]; Pressure 15 kN): Form CSII; Crystalline form after grinding ([8]; grinding (ball milling, FIG. 5)): doesn't change; Crystalline form before and after formulation process [9]: remains stable
												CCNCCc1ccc(CN(CC)c2cc(OC)ccc2[C@@H]2CCc3cc(O)ccc3C2)cc1 [Elacestrant, (R)-6-{2-{ethyl [4-(2-ethylaminoethyl)benzyl]amino}-4-methoxyphenyl}-5,6,7,8-tetrahydronaphthalen-2-ol]		BCS class [10]: BCS class IV
1170 (≈ 2.55 mM)	1.64	286	839	350	0.198	0.248	20	Fair	0.44	9.3	0.59	CCNCCc1ccc(CN(CC)c2cc(OC)ccc2[C@@H]2CCc3cc(O)ccc3C2)cc1 [Prior art Form 1B, reference compound]	can maintain stability at humidity above 90% RH	Particle morphology ([1]; Table 17 of WO2020010216A1): very small flaky particle mainly composed of aggregates
												CCNCCc1ccc(CN(CC)c2cc(OC)ccc2[C@@H]2CCc3cc(O)ccc3C2)cc1 [Form 3]	transitions to Form 2 when humidity is above 40% RH	
												CCNCCc1ccc(CN(CC)c2cc(OC)ccc2[C@@H]2CCc3cc(O)ccc3C2)cc1 [Form 2]	transitions to Form 3 when humidity is below 40% RH	
